Experimental data reported in article PMC6052416, “Selective inhibition of carbonic anhydrase-IX by sulphonamide derivatives induces pH and reactive oxygen species-mediated apoptosis in cervical cancer HeLa cells” (Journal of Enzyme Inhibition and Medicinal Chemistry, 2018).

How the values were obtained:
Format in all cases: cell-based, human
HeLa cells [1] = assay: Annexin-V FITC/PI apoptosis by flow cytometry; conditions: Annexin-V FITC
Method: The apoptotic effect of the substances was explored with the commercial FITC Annexin-V Apoptosis Detection Kit I (BD Biosciences, New Jersey, USA) according to the manufacturer’s protocol. The cells were planted in 6-well plates (5 × 10^5 cells/well), and following 24-h incubation, sulphonamide derivative compounds at concentrations of 10–25–50 µM were administered, followed by incubation for 24 h. The cells were raised by trypsin handling and transferred into new tubes within 1X binding buffer, as 1 × 10^6 in each tube, which were incubated for 15 min at room temperature. 5 µL of fluorochrome-conjugated Annexin-V and 5 µL of propidium iodide dyes were then added. 100 µL 1X binding buffer was added to the cells, and they were then centrifuged at 1200 rpm, for 5 min. Finally, the cells were analysed in flow cytometry (BD Via, New Jersey, USA).

HeLa cells [2] = assay: Intracellular ROS detection; conditions: 0–200 μM
Method: Intracellular free radicals were measured using the Cellular Reactive Oxygen Species Detection Assay Commercial Kit (Red Fluorescence, Abcam, Cambridge, UK, 186027). In this kit, a fluorescence probe that is permeable to the cell is used. When the probe reacts with ROS, it produces red fluorescence. The process was applied following kit protocol. The cells were planted in black plates, as 3 × 10^4 in 100 µL, and incubated for 24 h. Sulphonamide compounds in PBS were administered at doses of 0–200 µM and incubated at 37 °C in an atmosphere of 5% CO2 for 1 h (protected from light). After the compounds were poured out, the wells were filled with 100 µL of ROS Deep Red Working Solution and incubated at 37 °C in an atmosphere of 5% CO2 for 1 h. A fluorometry device (Spectramax, M5) Ex/Em = 650/675 nm (cut off = 665 nm) was used to take the measurements.

HeLa cells [3] = assay: Cell cycle analysis by flow cytometry; conditions: 24 h
Method: Cell cycle analysis was performed using BD Cycletest™ Plus DNA Reagent kit (BD Biosciences). According to the kit protocol, 1 × 10^6 cells were planted in 6-well plates, and following 24 h, the cells were incubated for 24 h, with sulphonamide derivative compounds at concentrations of 10–25–50 µM. The cells were raised with trypsin handling and centrifuged at 1500 rpm for 5 min. A suspension was formed with 1X binding buffer, and respectively, 250 µL solution A was added and incubated in a light-free environment for 10 min; 200 µL solution B was added and incubated in a light-free environment for 10 min; and 200 µL solution C was added and incubated in at +4° C in a protected-light environment for 10 min. All analyses were performed by flow cytometry (BD Via, New Jersey, USA).

NS(=O)(=O)c1ccc(CCN=Cc2cc(Br)ccc2O)cc1 [Compound 1]
dose from which an apoptotic effect was shown (HeLa cells [1]): ≥ 25 µM
intracellular ROS amount (HeLa cells [2]): dose-related increase
S (HeLa cells [3]; 50μM): 20.1%
Sub-G1 (HeLa cells [3]; 50μM): 10.8%
dose from which the cell division effect was seen (HeLa cells [3]): ≥ 25 µM
